Several values for one entry are separate records, joined by “and”; a condition that tells them apart may be missing. Equal entries are not always repeated. Where two headings read alike, the source gives them in different places.
How the values were obtained:
Format in all cases: in vivo
[1] = system: CT26.wt (colon carcinoma); test: Effect of isomer 4 (9d) on tumour growth, CT26.wt (Example 10); conditions: CT26.wt (high dose colon carcinoma); Balbc/cByl mice; 250 ng/mice i.p. days 6, 7 and 14
Experimental: (§1) The following assays were made in order to check the effect of isomer 4 (9d) on different tumours following methods and materials analogous to those used in examples 8 and 9, In all cases sterile physiologic saline (Grifols, Barcelona, Spain) was used as placebo. Isomer 4 (9d) was tested at the dose levels indicated in Table 13 on days 6, 7 and 14 after tumour inoculation. In all cases the vehicle was physiologic saline and the treatments were given by intraperitoneal route. The volume inoculated was 0.2 mL/animal.

[2] = system: CT26.CL25 (colon carcinoma); test: Effect of isomer 4 (9d) on tumour growth, CT26.CL25 (Example 10); conditions: CT26.CL25 (Low dose colon carcinoma); Balbc/cByl mice; 250 ng/mice i.p. days 6, 7 and 14
Experimental: as §1

Mm5MT (Breast tumour) = test: Effect of isomer 4 (9d) on tumour growth, Mm5MT (Example 10); conditions: C3H/HeN mice, 250 ng/mice i.p. days 6, 7 and 14
Experimental: as §1

KLN 205 (lung carcinoma) = test: Effect of isomer 4 (9d) on tumour growth, KLN 205 (Example 10); conditions: KLN 205 (high dose lung carcinoma); DBA/2NCrI mice; 260 ng/mice i.p. days 6, 7 and 14
Experimental: as §1

Lewis (lung carcinoma) = test: Effect of isomer 4 (9d) on tumour growth, Lewis (Example 10); conditions: Lewis (low dose lung carcinoma); C57BL/6NCrI mice; 260 ng/mice i.p. days 6, 7 and 14
Experimental: as §1

P-815 (Mastocytoma) = test: Effect of isomer 4 (9d) on tumour growth, P-815 (Example 10); conditions: DBA/2NCrI mice, 250 ng/mice i.p. days 6, 7 and 14
Experimental: as §1

healthy mice = conditions: for WEIGHT LOSS: weight, MEAN / WEIGHT LOSS: weight, MEDIAN: n 5
Experimental: This assay was made in order to perform a preliminary study to address the toxic effect of Isomer 4 (9d) used at a high dose on healthy mice. Its eventual toxicity will be compared with placebo.
Isomer 4 (9d) at 0.7 mg/mL in sterile physiological saline.
The vehicle in which Isomer 4 was diluted was sterile physiological saline for injection (Grifols, Barcelona, Spain) and sterile distilled water for injection (Grifols, Barcelona, Spain)
The treatments were given i.p. or s.c.
Every mouse was observed daily during 10 days.
Three measures were performed:
3. Weight. This was measured and expressed in grammes.
4. Lethality. This was expressed as percentage of survival.
5. Toxicity. This was checked on alive mice for the following parameters and score criteria:
A case-control study was performed with treated and control mice in order to determine whether differences between Isomer 4 and administration of placebo were present. The U-test of Mann Withney was chosen for being one of the better known non-parametrical tests, anyway, results for this test are equivalent both to those of Wilcoxon's sum of ranges and Kruskal-Wallis two-groups test.

[3] = Group A1, 1.25 mg i.p., C57BL/6NCrI, day 0 after the beginning of the treatment
[4] = Group A1, 1.25 mg i.p., C57BL/6NCrI, day 1 after the beginning of the treatment
[5] = Group A1, 1.25 mg i.p., C57BL/6NCrI, day 2 after the beginning of the treatment
[6] = Group A1, 1.25 mg i.p., C57BL/6NCrI, day 3 after the beginning of the treatment
[7] = Group A1, 1.25 mg i.p., C57BL/6NCrI, day 4 after the beginning of the treatment
[8] = Group A1, 1.25 mg i.p., C57BL/6NCrI, day 5 after the beginning of the treatment
[9] = Group A1, 1.25 mg i.p., C57BL/6NCrI, day 6 after the beginning of the treatment
[10] = Group A1, 1.25 mg i.p., C57BL/6NCrI, day 7 after the beginning of the treatment
[11] = Group A1, 1.25 mg i.p., C57BL/6NCrI, day 8 after the beginning of the treatment
[12] = Group A1, 1.25 mg i.p., C57BL/6NCrI, day 9 after the beginning of the treatment
[13] = Group A1, 1.25 mg i.p., C57BL/6NCrI, day 10 after the beginning of the treatment

Br.N[C@]1(C[n+]2ccccc2)C[C@H](C(=O)O)NC1=O.[Br-] (single isomer, unassigned; isomer 4) [isomer 4, 3S,5R-1-(3-Amino-5-carboxy-2-oxopyrrolidin-3-ylmethyl)pyridinium bromide hidrobromide]
Tumour growth inhibition? [1]: YES
Tumour growth inhibition? [2]: YES
Tumour growth inhibition? (Mm5MT (Breast tumour)): YES
Tumour growth inhibition? (KLN 205 (lung carcinoma)): YES
Tumour growth inhibition? (Lewis (lung carcinoma)): YES
Tumour growth inhibition? (P-815 (Mastocytoma)): YES
Differences on weight between groups (Isomer 4 vs placebo), p (Mann-Whitney U test) (healthy mice; C57BL/6 mice, every day scored over 10 days): > 0.05
WEIGHT LOSS: weight of each mouse (healthy mice; Group A1, 1.25 mg i.p., C57BL/6NCrI, individual animals 1-5, day 8 after the beginning of the treatment): 26 g (3×) and 20 g and 28 g
WEIGHT LOSS: weight, MEAN (healthy mice; [3]): 26.4 g
WEIGHT LOSS: weight, MEDIAN (healthy mice; [3]): 27 g
WEIGHT LOSS: weight, MEAN (healthy mice; [4]): 25.4 g
WEIGHT LOSS: weight, MEDIAN (healthy mice; [4]): 26 g
WEIGHT LOSS: weight, MEAN (healthy mice; [5]): 25.4 g
WEIGHT LOSS: weight, MEDIAN (healthy mice; [5]): 26 g
WEIGHT LOSS: weight, MEAN (healthy mice; [6]): 26 g
WEIGHT LOSS: weight, MEDIAN (healthy mice; [6]): 26 g
WEIGHT LOSS: weight, MEAN (healthy mice; [7]): 25.8 g
WEIGHT LOSS: weight, MEDIAN (healthy mice; [7]): 26 g
WEIGHT LOSS: weight, MEAN (healthy mice; [8]): 24.8 g
WEIGHT LOSS: weight, MEDIAN (healthy mice; [8]): 26 g
WEIGHT LOSS: weight, MEAN (healthy mice; [9]): 25 g
WEIGHT LOSS: weight, MEDIAN (healthy mice; [9]): 26 g
WEIGHT LOSS: weight, MEAN (healthy mice; [10]): 25 g
WEIGHT LOSS: weight, MEDIAN (healthy mice; [10]): 26 g
WEIGHT LOSS: weight, MEAN (healthy mice; [11]): 25.2 g
WEIGHT LOSS: weight, MEDIAN (healthy mice; [11]): 26 g
WEIGHT LOSS: weight, MEAN (healthy mice; [12]): 25 g
WEIGHT LOSS: weight, MEDIAN (healthy mice; [12]): 26 g
WEIGHT LOSS: weight, MEAN (healthy mice; [13]): 24.8 g
WEIGHT LOSS: weight, MEDIAN (healthy mice; [13]): 26 g
Deaths or toxicity (systemic), in words (healthy mice; Group A1, dose exceeded 50,000-fold the total amount of the therapeutic dose): No deaths or toxicity were observed
Local toxicity, in words (healthy mice; Group C1, dose exceeded 500-fold the normal concentration of the therapeutic dose): Local toxicity was neither observed
Tolerance by mice, in words (healthy mice; doses that greatly exceed its therapeutic range): well tolerated

Source: US8835466B2, “Synthesis and uses of pyroglutamic acid derivatives” (Prodimed, S.A., priority 2006, dated 2014)
